Laboratory results as given in patent US7741363B2, “3-Acylindole derivatives, preparation and therapeutic use thereof” (Sanofi-Aventis, priority 2005, dated 2010).

## Cc1c(C(=O)CC(C)(C)C)c2cccc(Cl)c2n1CCC[S+](C)[O-] (stereo not shown)
  melting point: 123 °C
